Assay results as given in patent US20070128217A1 (priority 2003, published 2007).

Assays:
[1] = test system: antibodies in sera from SARS patients (sera 1a, 1b, 2, 6, 37, 62, London, SARS-yellow, SARS-green); type: binding, human; design: Binding of serum 6 to linear peptides of protein X1 of SARS-CoV Urbani / Binding of serum 37 to linear peptides of protein X1 of SARS-CoV Urbani / Binding of serum 6 to looped/cyclic peptide (PEPSCAN-ELISA) / Binding of serum 37 to looped/cyclic peptide (PEPSCAN-ELISA) / Binding of serum 37 to looped/cyclic peptides of protein X1 of SARS-CoV Urbani / Binding of serum 6 to linear peptides of protein X2 / Binding of serum 37 to linear peptides of protein X2 / Binding of serum 37 to looped/cyclic peptides of protein X2 of SARS-CoV Urbani / Binding of serum 6 to linear peptides of protein M of SARS-CoV Urbani / Binding of serum 37 to linear peptides of protein M of SARS-CoV Urbani / Binding of serum 6 to looped/cyclic peptides of protein M of SARS-CoV Urbani / Binding of serum 37 to looped/cyclic peptides of protein M of SARS-CoV Urbani / Binding of serum 6 to linear peptides of protein X3 of SARS-CoV Urbani / Binding of serum 37 to linear peptides of protein X3 of SARS-CoV Urbani / Binding of serum 37 to looped/cyclic peptides of protein X3 of SARS-CoV Urbani / Binding of serum 6 to linear peptides of protein X4 of SARS-CoV Urbani / Binding of serum 37 to linear peptides of protein X4 of SARS-CoV Urbani / Binding of serum 37 to looped/cyclic peptides of protein X4 of SARS-CoV Urbani / Binding of serum 6 to linear peptides of protein X5 of SARS-CoV Urbani / Binding of serum 37 to linear peptides of protein X5 of SARS-CoV Urbani / Binding of serum 37 to looped/cyclic peptides of protein X5 of SARS-CoV Urbani / Binding of serum 6 to linear peptides of protein N of SARS-CoV Urbani / Binding of serum 37 to linear peptides of protein N of SARS-CoV Urbani / Binding of serum 6 to linear peptide (PEPSCAN-ELISA) / Binding of serum 1a to looped/cyclic peptides of protein N of SARS-CoV Urbani / Binding of serum 1b to looped/cyclic peptides of protein N of SARS-CoV Urbani / Binding of serum 2 to looped/cyclic peptides of protein N of SARS-CoV Urbani / Binding of serum 6 to looped/cyclic peptides of protein N of SARS-CoV Urbani / Binding of serum 37 to looped/cyclic peptides of protein N of SARS-CoV Urbani / Binding of serum 62 to looped/cyclic peptides of protein N of SARS-CoV Urbani / Binding of serum London to looped/cyclic peptides of protein N of SARS-CoV Urbani / Binding of serum SARS-green to looped/cyclic peptides of protein N of SARS-CoV Urbani: unit not given here
[2] = test system: control sera (pooled serum of ten healthy LUMC hospital workers; commercial negative donor pooled serum from the Dutch bloodbank); type: binding, human; design: Binding of Control serum LUMC to linear peptides / Binding of Control serum Blood-bank to linear peptides / Binding of Control serum LUMC to looped peptides / Binding of Control Serum Blood-Bank to Looped peptides / Binding of Control serum LUMC to linear peptides of the protein M of SARS-CoV Urbani / Binding of Control serum Blood-bank to linear peptides of the protein M of SARS-CoV Urbani / Binding of Control serum LUMC to looped peptides of the protein M of SARS-CoV Urbani / Binding of Control Serum Blood-Bank to Looped peptides of the protein M of SARS-CoV Urbani: unit not given here
[3] = test system: rabbit serum obtained by immunizing a rabbit with the SARS-CoV strain Frankfurt 1; type: binding; design: Binding of a rabbit serum to linear peptides / Binding of a rabbit serum to looped peptides / Rabbit serum linear peptides / Rabbit serum looped peptides / Binding of a rabbit serum to linear peptides of protein N of SARS-CoV Urbani (Rabbit serum linear peptides) / Binding of a rabbit serum to looped/cyclic peptides of protein N of SARS-CoV Urbani (Rabbit serum looped peptides): unit not given here

KDLPKEITVATSRTL
Binding of serum 1a to linear peptides of protein M of SARS-CoV Urbani [1]: 0.7
Binding of serum 1a to looped/cyclic peptides of protein M of SARS-CoV Urbani [1]: 0.6
Binding of serum 1b to linear peptides of protein M of SARS-CoV Urbani [1]: 0.6
Binding of serum 1b to looped/cyclic peptides of protein M of SARS-CoV Urbani [1]: 0.6
Binding of serum 2 to linear peptides of protein M of SARS-CoV Urbani [1]: 0.6
Binding of serum 2 to looped/cyclic peptides of protein M of SARS-CoV Urbani [1]: 0.7
Binding of serum 6 to linear peptides of protein M of SARS-CoV Urbani [1]: 0.5
Binding of serum 6 to looped/cyclic peptides of protein M of SARS-CoV Urbani [1]: 1.1
Binding of serum 37 to linear peptides of protein M of SARS-CoV Urbani [1]: 0.5
Binding of serum 37 to looped/cyclic peptides of protein M of SARS-CoV Urbani [1]: 0.6
Binding of serum 62 to linear peptides of protein M of SARS-CoV Urbani [1]: 0.5
Binding of serum 62 to looped/cyclic peptides of protein M of SARS-CoV Urbani [1]: 0.6
Binding of serum London to linear peptides of protein M of SARS-CoV Urbani [1]: 0.3
Binding of serum London to looped/cyclic peptides of protein M of SARS-CoV Urbani [1]: 1.1
Binding of serum SARS-green to linear peptides of protein M of SARS-CoV Urbani [1]: 0.5
Binding of serum SARS-green to looped/cyclic peptides of protein M of SARS-CoV Urbani [1]: 0.3
Binding of serum SARS-yellow to linear peptides of protein M of SARS-CoV Urbani [1]: 0.2
Binding of serum SARS-yellow to looped/cyclic peptides of protein M of SARS-CoV Urbani [1]: 0.9
Binding of Control Serum Blood-Bank to Looped peptides of the protein M of SARS-CoV Urbani [2]: 0.6
Binding of Control serum Blood-bank to linear peptides of the protein M of SARS-CoV Urbani [2]: 0.7
Binding of Control serum LUMC to linear peptides of the protein M of SARS-CoV Urbani [2]: 0.6
Binding of Control serum LUMC to looped peptides of the protein M of SARS-CoV Urbani [2]: 0.8
Rabbit serum linear peptides [3]: 0.2
Rabbit serum looped peptides [3]: 0.3

KEITVATSRTLSYYK
Binding of serum 1a to linear peptides of protein M of SARS-CoV Urbani [1]: 0.7
Binding of serum 1a to looped/cyclic peptides of protein M of SARS-CoV Urbani [1]: 0.6
Binding of serum 1b to linear peptides of protein M of SARS-CoV Urbani [1]: 0.6
Binding of serum 1b to looped/cyclic peptides of protein M of SARS-CoV Urbani [1]: 0.5
Binding of serum 2 to linear peptides of protein M of SARS-CoV Urbani [1]: 0.6
Binding of serum 2 to looped/cyclic peptides of protein M of SARS-CoV Urbani [1]: 0.8
Binding of serum 6 to linear peptides of protein M of SARS-CoV Urbani [1]: 0.0
Binding of serum 6 to looped/cyclic peptides of protein M of SARS-CoV Urbani [1]: 1.3
Binding of serum 37 to linear peptides of protein M of SARS-CoV Urbani [1]: 0.5
Binding of serum 37 to looped/cyclic peptides of protein M of SARS-CoV Urbani [1]: 0.6
Binding of serum 62 to linear peptides of protein M of SARS-CoV Urbani [1]: 0.6
Binding of serum 62 to looped/cyclic peptides of protein M of SARS-CoV Urbani [1]: 0.5
Binding of serum London to linear peptides of protein M of SARS-CoV Urbani [1]: 0.3
Binding of serum London to looped/cyclic peptides of protein M of SARS-CoV Urbani [1]: 0.4
Binding of serum SARS-green to linear peptides of protein M of SARS-CoV Urbani [1]: 0.4
Binding of serum SARS-green to looped/cyclic peptides of protein M of SARS-CoV Urbani [1]: 0.2
Binding of serum SARS-yellow to linear peptides of protein M of SARS-CoV Urbani [1]: 0.2
Binding of serum SARS-yellow to looped/cyclic peptides of protein M of SARS-CoV Urbani [1]: 0.5
Binding of Control Serum Blood-Bank to Looped peptides of the protein M of SARS-CoV Urbani [2]: 0.7
Binding of Control serum Blood-bank to linear peptides of the protein M of SARS-CoV Urbani [2]: 0.8
Binding of Control serum LUMC to linear peptides of the protein M of SARS-CoV Urbani [2]: 0.6
Binding of Control serum LUMC to looped peptides of the protein M of SARS-CoV Urbani [2]: 0.7
Rabbit serum linear peptides [3]: 0.4
Rabbit serum looped peptides [3]: 0.5

KEPCPSGTYEGNSPF
Binding of serum 1a to linear peptides of protein X4 of SARS-CoV Urbani [1]: 0.7
Binding of serum 1a to looped/cyclic peptides of protein X4 of SARS-CoV Urbani [1]: 0.8
Binding of serum 1b to linear peptides of protein X4 of SARS-CoV Urbani [1]: 0.6
Binding of serum 1b to looped/cyclic peptides of protein X4 of SARS-CoV Urbani [1]: 0.6
Binding of serum 2 to linear peptides of protein X4 of SARS-CoV Urbani [1]: 0.4
Binding of serum 2 to looped/cyclic peptides of protein X4 of SARS-CoV Urbani [1]: 0.6
Binding of serum 6 to linear peptides of protein X4 of SARS-CoV Urbani [1]: 0.4
Binding of serum 6 to looped/cyclic peptides of protein X4 of SARS-CoV Urbani [1]: 0.6
Binding of serum 37 to linear peptides of protein X4 of SARS-CoV Urbani [1]: 0.7
Binding of serum 37 to looped/cyclic peptides of protein X4 of SARS-CoV Urbani [1]: 0.7
Binding of serum 62 to linear peptides of protein X4 of SARS-CoV Urbani [1]: 0.8
Binding of serum 62 to looped/cyclic peptides of protein X4 of SARS-CoV Urbani [1]: 0.6
Binding of serum London to linear peptides of protein X4 of SARS-CoV Urbani [1]: 0.8
Binding of serum London to looped/cyclic peptides of protein X4 of SARS-CoV Urbani [1]: 0.3
Binding of serum SARS-green to linear peptides of protein X4 of SARS-CoV Urbani [1]: 0.6
Binding of serum SARS-green to looped/cyclic peptides of protein X4 of SARS-CoV Urbani [1]: 0.4
Binding of serum SARS-yellow to linear peptides of protein X4 of SARS-CoV Urbani [1]: 0.7
Binding of serum SARS-yellow to looped/cyclic peptides of protein X4 of SARS-CoV Urbani [1]: 0.3
Binding of Control Serum Blood-Bank to Looped peptides [2]: 0.5
Binding of Control serum Blood-bank to linear peptides [2]: 0.6
Binding of Control serum LUMC to linear peptides [2]: 0.6
Binding of Control serum LUMC to looped peptides [2]: 0.8
Rabbit serum linear peptides [3]: 0.4
Rabbit serum looped peptides [3]: 0.3

KFALTCTSTHFAFAC
Binding of serum 1a to linear peptides of protein X4 of SARS-CoV Urbani [1]: 0.8
Binding of serum 1a to looped/cyclic peptides of protein X4 of SARS-CoV Urbani [1]: 1.0
Binding of serum 1b to linear peptides of protein X4 of SARS-CoV Urbani [1]: 0.6
Binding of serum 1b to looped/cyclic peptides of protein X4 of SARS-CoV Urbani [1]: 0.7
Binding of serum 2 to linear peptides of protein X4 of SARS-CoV Urbani [1]: 0.5
Binding of serum 2 to looped/cyclic peptides of protein X4 of SARS-CoV Urbani [1]: 0.9
Binding of serum 6 to linear peptides of protein X4 of SARS-CoV Urbani [1]: 0.8
Binding of serum 6 to looped/cyclic peptides of protein X4 of SARS-CoV Urbani [1]: 0.7
Binding of serum 37 to linear peptides of protein X4 of SARS-CoV Urbani [1]: 0.8
Binding of serum 37 to looped/cyclic peptides of protein X4 of SARS-CoV Urbani [1]: 0.7
Binding of serum 62 to linear peptides of protein X4 of SARS-CoV Urbani [1]: 0.8
Binding of serum 62 to looped/cyclic peptides of protein X4 of SARS-CoV Urbani [1]: 0.9
Binding of serum London to linear peptides of protein X4 of SARS-CoV Urbani [1]: 0.8
Binding of serum London to looped/cyclic peptides of protein X4 of SARS-CoV Urbani [1]: 0.4
Binding of serum SARS-green to linear peptides of protein X4 of SARS-CoV Urbani [1]: 0.4
Binding of serum SARS-green to looped/cyclic peptides of protein X4 of SARS-CoV Urbani [1]: 0.8
Binding of serum SARS-yellow to linear peptides of protein X4 of SARS-CoV Urbani [1]: 0.6
Binding of serum SARS-yellow to looped/cyclic peptides of protein X4 of SARS-CoV Urbani [1]: 0.8
Binding of Control Serum Blood-Bank to Looped peptides [2]: 0.9
Binding of Control serum Blood-bank to linear peptides [2]: 0.7
Binding of Control serum LUMC to linear peptides [2]: 0.7
Binding of Control serum LUMC to looped peptides [2]: 0.8
Rabbit serum linear peptides [3]: 0.5
Rabbit serum looped peptides [3]: 0.6
